Literature values as cited in US9849088B2, “Depot formulations of a hydrophobic active ingredient and methods for preparation thereof” (PAINREFORM LTD., priority 2012, dated 2017).

Conditions: comparison value

Question: For CCCN1CCCC[C@H]1C(=O)Nc1c(C)cccc1C [ropivacaine], which Toxic threshold (plasma) is on record?
Answer: The Toxic threshold (plasma) was 0.6 µg/mL.
